# Assay results reported in US20240299476A1, “USE OF A BIRNAVIRUS ALONE OR IN COMBINATION THERAPY FOR THE TREATMENT OF CANCER” (Probiogen AG, priority 2020, published 2024).
# Legend:
# [1] = tested on: HEK293; test: IBDV replication with or without 5 mM 2-aminopurin, TCID50 titration, HEK293; assay type: cell-based; settings: HEK293 (normal RAS), IBDV MOI 0.05, 5 mM 2-AP versus none, 96 h
# Method: (§1) FIG. 2: Enhancement of IBDV replication following treatment with 2-aminopurin in cell lines with normal RAS function (HEK293, AGE1.CR.PIX) but not in a RAS defective cell line (A549). Cells were infected with IBDV at MOI 0.05 either in the presence of 5 mM 2-aminopurin (2-AP) or without, cells together with supernatant were lysed by 3× freeze/thaw steps, cell debris was removed by centrifugation and the virus titer was quantified by TCID50.
# (§2) Because susceptibility varies among cell lines, the positive impact of a RAS defect on IBDV replication has to be shown comparing cells of the same type with a specific propensity to replicate IBDV with normal and defect RAS function. Such RAS defect can be simulated in a cell line with normal RAS when cells are treated with 2-aminopurin. The drug prevents phosphorylation of protein kinase PKR that is prevented in cells with a RAS defect. The effect of 2-aminopurin on IBDV replication is studied in cell lines with (A549) and without a RAS mutation (AGE1.CR.PIX, HEK293).
# (§3) HEK 293, A549, and AGE1.CR.pIX cells were infected with IBDV at MOI 0.05 either in the presence of 5 mM 2-aminopurin (2-AP) or without. […] Subsequently, the virus titer was quantified by TCID50 titration in different dilutions using adherent AGE1.CR.PIX cells. Based on the cytopathic effect (CPE) the TCID50 titer was evaluated 72 hours post infection (FIG. 2).
# [2] = tested on: AGE1.CR.PIX; test: IBDV replication with or without 5 mM 2-aminopurin, TCID50 titration, AGE1.CR.PIX; assay type: cell-based, duck; settings: AGE1.CR.PIX (normal RAS), IBDV MOI 0.05, 5 mM 2-AP versus none, 96 h
# Method: as §1, §2, §3
# [3] = tested on: A549; test: IBDV replication with or without 5 mM 2-aminopurin, TCID50 titration, A549 (RAS mutant); assay type: cell-based, human; settings: IBDV MOI 0.05, 5 mM 2-AP versus none, 96 h
# Method: as §1, §2, §3
# [4] = tested on: stage IV hilar cholangiocarcinoma; test: Compassionate use case report: cholangiocarcinoma; assay type: in vivo, human; settings: same patient before IBDV; agents added to ongoing low-dose chemotherapy; CA19-9 at diagnosis 2,729
# Source text: A person approached the clinic for treatment of resistant stage IV hilar cholangiocarcinoma, CK7 positive, CK20 negative with confirmed peritoneal metastatic disease. During 2016 patient developed unexplained weight loss of approximately 10 kg, night pruritus. […] In January 2017 jaundice developed. Blood test on 19 Mar. […] Considering tumor location and potential involvement of both right and left lobes, no surgical procedure was considered, except liver transplantation. On 10 Apr. 2017 a biliary stent was introduced for drainage of rising levels of bilirubin >14 mg/dL. On 13 Apr. 2017 abdominal exploratory laparoscopy reviled peritoneal metastases and conventional chemotherapy was recommended but the patient preferred synergic combination of low doses of gemcitabine, leucovorin, fluorouracil, irinotecan and oxaliplatin administered over 48 h period every two weeks. After discovery of 2 mutations on BRCA1 (Exon 10/V9201) and BRCA2 (Exon 11/N2113S) it was decided to add PARP inhibitor and on 24 Jul. 2017 rucaparib was added and CA19-9 dropped to 287 IU/mL. CA19-9 increased following administration of nivolumab but stabilized at 250 IU/mL by adding abraxane, gemcitabine and oxaliplatin. Following addition of Erbitux and later on combinations of low-dose (1.0 mg/kg) ipilimumab and nivolumab (2 mg/kg) CA19-9 levels dropped from 369 IU/mL to normal levels. […]
Molecule,"Enhancement of IBDV replication (virus titer, TCID50) [1]","Enhancement of IBDV replication (virus titer, TCID50) [2]","Effect on IBDV replication (virus titer, TCID50) [3]","Tumor marker CA19-9 level after adding the agent (earlier therapy, patient history) [4]"
Nc1ncc2[nH]cnc2n1 [2-aminopurine],approximately 10 fold,approximately 10 fold,no benefit,–
CNCc1ccc(-c2[nH]c3cc(F)cc4c3c2CCNC4=O)cc1 [rucaparib],–,–,–,287 IU/mL
nivolumab,–,–,–,increased
